Assays:
[1] = target: Matrix metalloproteinase-9 (Rattus norvegicus, UniProt P50282); test: enzyme-based fluorimetric assay; conditions: pH 7.5; 25 °C
From the text: (§1) For this assay, the reagents used as follows. The substrate corresponds to Mca-Pro-Leu-Gly-Leu-Dpa-Ala-Arg 25 mm in assay buffer. This low-fluorescent peptide is cleaved by MMPs to provide Mca-Pro-Leu-Gly, which is intensely fluorescent at an excitation at 340 nm and emission at 405 nm. While the enzymes pro-MMP-2 250 pm and MMP-9 (recombinant catalytic sequence) 500 pm in assay buffer. The assay buffer consists of Tris HCl 0.1 m, pH 7.5, NaCl 0.1 m, CaCl2 10 mm, 0.05% v/v BRIJ35, APMA (p-aminophenylmercuric acetate) 1 mm. This was carried out in 96-well plate, a solution of […] at the appropriate concentration and […] was incubated together at 25 °C for 30 min, and […] of substrate solution was added and the plate was further incubated 3 h at 37 °C. The incubation solutions were quenched with acetic acid ([…] soln.) and their fluorescence was recorded with the help of a plate reader spectrometer. The inhibitory activities were calculated against a control and IC50 curves, derived from 6 different inhibitor concentrations, extrapolated by means of statistical analysis program graphpad prism (v. 4.0; San Diego, CA, USA). Each inhibitor concentration was used in triplicate and the experiments run twice.

[2] = target: 72 kDa type IV collagenase (Rat, UniProt P33436); test: enzyme-based fluorimetric assay; conditions: pH 7.5; 25 °C
From the text: as §1

72 kDa type IV collagenase, sequence (P33436 whole entry): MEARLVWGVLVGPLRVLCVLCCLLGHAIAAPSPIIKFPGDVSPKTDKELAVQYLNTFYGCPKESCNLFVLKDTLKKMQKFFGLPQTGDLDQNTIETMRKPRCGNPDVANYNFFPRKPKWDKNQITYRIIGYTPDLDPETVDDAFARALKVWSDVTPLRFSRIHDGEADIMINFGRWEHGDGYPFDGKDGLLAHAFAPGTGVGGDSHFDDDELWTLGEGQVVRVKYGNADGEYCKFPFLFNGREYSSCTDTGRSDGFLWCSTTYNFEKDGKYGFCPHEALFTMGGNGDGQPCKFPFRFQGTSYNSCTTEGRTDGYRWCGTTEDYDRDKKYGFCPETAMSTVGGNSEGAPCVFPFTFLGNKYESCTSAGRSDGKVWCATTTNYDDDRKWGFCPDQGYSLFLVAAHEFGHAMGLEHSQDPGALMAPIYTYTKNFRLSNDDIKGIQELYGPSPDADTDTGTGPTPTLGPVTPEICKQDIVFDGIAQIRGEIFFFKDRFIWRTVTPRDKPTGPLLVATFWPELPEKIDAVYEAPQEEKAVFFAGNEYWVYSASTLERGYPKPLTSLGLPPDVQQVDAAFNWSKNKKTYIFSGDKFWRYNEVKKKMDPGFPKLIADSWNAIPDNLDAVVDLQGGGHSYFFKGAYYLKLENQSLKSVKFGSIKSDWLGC
Matrix metalloproteinase-9, sequence (P50282 whole entry): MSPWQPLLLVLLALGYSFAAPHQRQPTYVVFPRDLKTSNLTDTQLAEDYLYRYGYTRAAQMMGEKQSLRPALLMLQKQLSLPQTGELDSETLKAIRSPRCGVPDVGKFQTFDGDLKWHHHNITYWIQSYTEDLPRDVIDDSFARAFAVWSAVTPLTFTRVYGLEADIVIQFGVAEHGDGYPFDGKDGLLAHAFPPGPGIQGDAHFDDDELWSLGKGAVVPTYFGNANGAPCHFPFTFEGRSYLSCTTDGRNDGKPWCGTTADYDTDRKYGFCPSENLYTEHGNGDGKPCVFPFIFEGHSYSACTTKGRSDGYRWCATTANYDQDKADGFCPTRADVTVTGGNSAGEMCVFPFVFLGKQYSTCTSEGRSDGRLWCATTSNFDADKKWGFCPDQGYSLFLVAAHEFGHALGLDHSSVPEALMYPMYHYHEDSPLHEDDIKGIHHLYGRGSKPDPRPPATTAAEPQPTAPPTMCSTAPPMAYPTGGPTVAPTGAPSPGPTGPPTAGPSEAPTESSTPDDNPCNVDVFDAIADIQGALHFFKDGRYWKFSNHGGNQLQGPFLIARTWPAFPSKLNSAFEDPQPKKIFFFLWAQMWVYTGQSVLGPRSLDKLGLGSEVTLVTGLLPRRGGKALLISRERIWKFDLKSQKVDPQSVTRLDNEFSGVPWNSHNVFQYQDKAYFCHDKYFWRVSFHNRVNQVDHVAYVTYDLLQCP

IC50 [1] | IC50 [2] | SMILES
156 nM | 189 nM | COc1ccc(-c2cc(-c3ccc(NS(=O)(=O)c4ccc(C)cc4)cc3)nn2-c2nc(NCCCN)nc(NCCCN)n2)cc1 [N-(4-(1-(4,6-bis((3-aminopropyl)amino)-1,3,5-triazin-2-yl)-5-(4-methoxyphenyl)-1H-pyrazol-3-yl)phenyl)-4-methylbenzenesulphonamide (8c)]
10.2 nM | 18.6 nM | COc1ccc(Nc2nc(Nc3ccc(OC)cc3)nc(-n3nc(-c4ccc(NS(=O)(=O)c5ccc(C)cc5)cc4)cc3-c3ccc(OC)cc3)n2)cc1 [N-(4-(1-(4,6-bis((4-methoxyphenyl)amino)-1,3,5-triazin-2-yl)-5-(4-methoxyphenyl)-1H-pyrazol-3-yl)phenyl)-4-methylbenzenesulphonamide (8f)]
58.2 nM | 67.1 nM | COc1ccc(-c2cc(-c3ccc(NS(=O)(=O)c4ccc(C)cc4)cc3)nn2-c2nc(Nc3ccccc3C)nc(Nc3ccccc3C)n2)cc1 [N-(4-(1-(4,6-bis(o-tolylamino)-1,3,5-triazin-2-yl)-5-(4-methoxyphenyl)-1H-pyrazol-3-yl)phenyl)-4-methylbenzenesulphonamide (8g)]
105 nM | 123 nM | COc1ccc(-c2cc(-c3ccc(NS(=O)(=O)c4ccc(C)cc4)cc3)nn2-c2nc(Nc3ccccc3)nc(Nc3ccccc3)n2)cc1 [N-(4-(1-(4,6-bis(phenylamino)-1,3,5-triazin-2-yl)-5-(4-methoxyphenyl)-1H-pyrazol-3-yl)phenyl)-4-methylbenzenesulphonamide (8d)]

Continued, molecule first:

SMILES | IC50 [1] | IC50 [2]
COc1ccc(-c2cc(-c3ccc(NS(=O)(=O)c4ccc(C)cc4)cc3)nn2-c2nc(Nc3ccc(O)cc3)nc(Nc3ccc(O)cc3)n2)cc1 [N-(4-(1-(4,6-bis((4-hydroxyphenyl)amino)-1,3,5-triazin-2-yl)-5-(4-methoxyphenyl)-1H-pyrazol-3-yl)phenyl)-4-methylbenzenesulphonamide (8e)] | 2.34 nM | 8.12 nM
COc1ccc(-c2cc(-c3ccc(NS(=O)(=O)c4ccc(C)cc4)cc3)nn2-c2nc(Nc3ccc([N+](=O)[O-])cc3)nc(Nc3ccc([N+](=O)[O-])cc3)n2)cc1 [N-(4-(1-(4,6-bis((4-nitrophenyl)amino)-1,3,5-triazin-2-yl)-5-(4-methoxyphenyl)-1H-pyrazol-3-yl)phenyl)-4-methylbenzenesulphonamide (8h)] | 68.5 nM | 76.6 nM
CCNc1nc(NCC)nc(-n2nc(-c3ccc(NS(=O)(=O)c4ccc(C)cc4)cc3)cc2-c2ccc(OC)cc2)n1 [N-(4-(1-(4,6-bis(ethylamino)-1,3,5-triazin-2-yl)-5-(4-methoxyphenyl)-1H-pyrazol-3-yl)phenyl)-4-methylbenzenesulphonamide (8b)] | 302 nM | 332 nM
CNc1nc(NC)nc(-n2nc(-c3ccc(NS(=O)(=O)c4ccc(C)cc4)cc3)cc2-c2ccc(OC)cc2)n1 [N-(4-(1-(4,6-bis(methylamino)-1,3,5-triazin-2-yl)-5-(4-methoxyphenyl)-1H-pyrazol-3-yl)phenyl)-4-methylbenzenesulphonamide (8a)] | 625 nM | 666 nM
COc1ccc(-c2cc(-c3ccc(NS(=O)(=O)c4ccc(C)cc4)cc3)nn2-c2nc(N3CCNCC3)nc(N3CCNCC3)n2)cc1 [N-(4-(1-(4,6-di(piperazin-1-yl)-1,3,5-triazin-2-yl)-5-(4-methoxyphenyl)-1H-pyrazol-3-yl)phenyl)-4-methylbenzenesulphonamide (8i)] | 47.1 nM | 55.3 nM
COc1ccc(-c2cc(-c3ccc(NS(=O)(=O)c4ccc(C)cc4)cc3)nn2-c2nc(N3CCOCC3)nc(N3CCOCC3)n2)cc1 [N-(4-(1-(4,6-dimorpholino-1,3,5-triazin-2-yl)-5-(4-methoxyphenyl)-1H-pyrazol-3-yl)phenyl)-4-methylbenzenesulphonamide (8j)] | 31.2 nM | 42.3 nM

— BindingDB's records for doi:10.1111/cbdd.12807 (Zhejiang Hospital, 2016)
